The target in one assay is T1, kinase domain of PDGFRβ (Homo sapiens, UniProt P09619).
T1 construct: The kinase domain of PDGFRβ was assayed in 50 mM Hepes; purchased Invitrogen P3082
Nature of the assay: Inhibition of PDGFRb kinase signaling in an in vitro biochemical assay (alphascreen). The settings on record: tested at about 1 μM, read-out: PDGFRβ percent inhibition. Background: Bead proximity is the source of the signal in Alpha formats.

The target in assay [1] is T2, cytoplasmic domain of the human CSF-1R (Homo sapiens, UniProt P07333).
T2 construct: Recombinant protein corresponding to the cytoplasmic domain of the human CSF-1R; purchased Invitrogen Corporation, Carlsbad, Calif; PV3249
T2 sequence (P07333 539-972 limits assumed): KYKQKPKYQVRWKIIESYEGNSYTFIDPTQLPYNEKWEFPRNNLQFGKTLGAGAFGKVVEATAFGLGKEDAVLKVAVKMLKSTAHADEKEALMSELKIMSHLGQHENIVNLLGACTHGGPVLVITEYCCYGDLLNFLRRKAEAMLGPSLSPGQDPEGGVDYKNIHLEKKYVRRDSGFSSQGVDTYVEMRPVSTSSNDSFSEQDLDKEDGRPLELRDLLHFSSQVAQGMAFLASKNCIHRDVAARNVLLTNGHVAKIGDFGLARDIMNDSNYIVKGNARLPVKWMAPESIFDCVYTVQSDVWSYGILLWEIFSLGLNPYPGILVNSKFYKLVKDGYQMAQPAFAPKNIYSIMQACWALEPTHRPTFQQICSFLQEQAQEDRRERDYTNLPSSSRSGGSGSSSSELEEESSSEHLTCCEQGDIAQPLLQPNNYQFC
Nature of the assay: In vitro kinase assay for colony stimulating factor-1 receptor (AlphaScreen). The class given is biochemical. The settings on record: tested at about 1 μM, read-out: CSF-1R percent inhibition. In outline:
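Test compounds, serially diluted threefold starting at 25 μM, were mixed with Hepes buffer (pH 7.5, Mg2+/Mn2+, DTT, BSA, Tween 80) containing 1 μM ATP. Recombinant kinase was present at 4 nM. After stopping, beads were added and plates were read the next day by AlphaScreen.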

Assay [2] addresses T3, full-length human CSF-1R receptor (Homo sapiens, UniProt P07333).
T3 construct: transfected with the full-length human CSF-1R receptor cloned in house; expressed in transfected cells; host or cells: HEK293H (Invitrogen Cat. #11631017)
Briefly: In vitro inhibition of CSF-1R receptor tyrosine phosphorylation in transfected HEK293H cells stimulated with MCSF. The class given is cell-based. The settings on record: HEK293-H, tested at about 1 μM, read-out: pCSF1R percent inhibition. As to the method:
The lysate was then transferred to total CSF-1R antibody coated 96-well plates that had already been blocked with 3% Blocker A from Mesoscale discovery (MSD) for 2 hours and washed afterwards. Lysates were incubated overnight at 4° C. and the plates were then washed 4× with MSD Tris Wash Buffer. […] The plates were read on the Sector 6000 instrument (MSD). Raw data was imported in Abase and EC50s calculated with XL-fit data analysis software.

The target in the next assay is T4, kinase domain of cKIT (Homo sapiens, UniProt P10721).
T4 construct: The kinase domain of cKIT was assayed in 50 mM Hepes; purchased Upstate 14-559
Nature of the assay: Inhibition of cKIT kinase signaling in an in vitro biochemical assay (alphascreen). To be noted: tested at about 1 μM, read-out: cKit percent inhibition.

In assay [3] the test system is MNFS60 (murine AML cells). Briefly: Cell viability assay in MCSF dependent MNFS60 cells (Cell Titer Glo). It counts as cell-based. To be noted: Mus musculus, tested at about 1 μM, read-out: M-NFS-60 CP percent inhibition. The procedure, abridged: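 Three-fold serial compound dilutions, prepared in DMSO at 500× the final level, were applied alongside MCSF (final 10 ng/ml). Incubation lasted 72 hrs (37° C., 5% CO2) before CellTiter-Glo addition. Triplicate points were curve-fitted for EC50.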

This is an account of results in US8173689B2 (Novartis AG, priority 2006, dated 2012).

Molecules are shown by their SMILES. Read-outs that look alike come from different tables or passages of the source.

T1 sequence (P09619 600-962 limits assumed): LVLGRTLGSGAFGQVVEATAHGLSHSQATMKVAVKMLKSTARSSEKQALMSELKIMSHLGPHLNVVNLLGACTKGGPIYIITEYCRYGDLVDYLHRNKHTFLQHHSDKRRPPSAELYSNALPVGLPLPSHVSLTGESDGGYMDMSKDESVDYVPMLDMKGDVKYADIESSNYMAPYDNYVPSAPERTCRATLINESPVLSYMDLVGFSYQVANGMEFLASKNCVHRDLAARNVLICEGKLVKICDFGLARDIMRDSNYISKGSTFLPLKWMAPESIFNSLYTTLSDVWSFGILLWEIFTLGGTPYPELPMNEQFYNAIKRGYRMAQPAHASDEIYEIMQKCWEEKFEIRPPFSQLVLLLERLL
T4 sequence (P10721 589-937 limits assumed): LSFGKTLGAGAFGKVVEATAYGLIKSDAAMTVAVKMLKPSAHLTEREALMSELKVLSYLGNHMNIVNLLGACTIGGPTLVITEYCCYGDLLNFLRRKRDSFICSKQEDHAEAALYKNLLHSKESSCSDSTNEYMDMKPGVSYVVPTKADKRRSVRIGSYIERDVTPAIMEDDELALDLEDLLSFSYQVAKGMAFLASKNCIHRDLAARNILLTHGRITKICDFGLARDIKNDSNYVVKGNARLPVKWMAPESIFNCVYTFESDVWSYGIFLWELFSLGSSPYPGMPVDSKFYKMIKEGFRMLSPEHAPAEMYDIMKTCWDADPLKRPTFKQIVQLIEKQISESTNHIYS
T3 sequence (P07333 20-972): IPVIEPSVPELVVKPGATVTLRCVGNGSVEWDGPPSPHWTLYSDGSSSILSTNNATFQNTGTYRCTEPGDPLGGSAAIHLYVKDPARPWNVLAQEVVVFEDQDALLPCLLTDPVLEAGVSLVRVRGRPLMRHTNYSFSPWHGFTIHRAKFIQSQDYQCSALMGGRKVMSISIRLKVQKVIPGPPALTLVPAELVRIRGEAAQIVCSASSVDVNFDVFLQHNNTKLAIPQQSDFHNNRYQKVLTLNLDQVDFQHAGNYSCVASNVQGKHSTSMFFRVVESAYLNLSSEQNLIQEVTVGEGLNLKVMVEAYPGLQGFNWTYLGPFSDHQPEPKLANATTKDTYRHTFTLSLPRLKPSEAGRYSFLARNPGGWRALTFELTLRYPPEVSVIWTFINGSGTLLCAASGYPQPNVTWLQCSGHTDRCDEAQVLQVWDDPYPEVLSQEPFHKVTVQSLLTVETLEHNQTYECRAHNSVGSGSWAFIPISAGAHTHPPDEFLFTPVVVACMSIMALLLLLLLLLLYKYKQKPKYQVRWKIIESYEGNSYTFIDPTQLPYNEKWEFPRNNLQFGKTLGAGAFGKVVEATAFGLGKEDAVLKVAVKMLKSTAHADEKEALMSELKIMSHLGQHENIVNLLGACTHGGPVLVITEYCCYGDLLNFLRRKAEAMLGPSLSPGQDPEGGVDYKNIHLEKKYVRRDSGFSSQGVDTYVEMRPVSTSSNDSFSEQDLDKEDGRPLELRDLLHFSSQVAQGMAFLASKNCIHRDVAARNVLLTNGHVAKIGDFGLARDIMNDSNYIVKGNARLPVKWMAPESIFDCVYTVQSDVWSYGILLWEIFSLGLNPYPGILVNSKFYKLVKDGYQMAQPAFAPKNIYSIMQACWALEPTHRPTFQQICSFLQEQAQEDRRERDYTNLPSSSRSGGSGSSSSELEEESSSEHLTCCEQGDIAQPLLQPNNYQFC

Take `CNC(=O)c1cc(Oc2ccc3nc(NC4CCCCNC4=O)sc3c2)ccn1` (centres unmarked) [Compound 93]: the inhibition at 1 µM amounted to 0% at kinase domain of PDGFRβ (compounds of Table 3); 100% in assay [1] (compounds of Table 3); 47% in assay [2] (compounds of Table 3); 12% on kinase domain of cKIT (compounds of Table 3); 23% in assay [3] (compounds of Table 3).
Regarding `CNC(=O)c1cc(Oc2ccc3nc(NCc4cccc5c4OCCCO5)oc3c2)ccn1` [Compound 108, 4-{2-[(3,4-Dihydro-2H-benzo[b][1,4]dioxepin-6-ylmethyl)-amino]-benzooxazol-6-yloxy}-pyridine-2-carboxylic acid methylamide], the inhibition at 1 µM at kinase domain of PDGFRβ was found to be 40%; in assay [1], 99%; in assay [2] (HEK293H cells), 98%; at kinase domain of cKIT, 100%; in assay [3] (MNFS60 cells), 100%.
In the case of `O[C@@H]1CCCC[C@H]1Nc1nc2ccc(Oc3ccnc(-c4cccnc4)c3)cc2s1` [Example 345, (1R,2R)-2-(6-(2,3'-bipyridin-4-yloxy)benzo[d]thiazol-2-ylamino)cyclohexanol], the inhibition at 1 µM at kinase domain of PDGFRβ turned out to be 13%; in assay [1] it was 100%; in assay [2] (HEK293H cells), 93%; at kinase domain of cKIT, 19%; in assay [3] (MCSF dependent MNFS60 cells), 97%.
Turning to `CNC(=O)c1cc(Oc2ccc3nc(NCC4CCCCCC4)sc3c2)ccn1` [Compound 148, 4-[2-(Cycloheptylmethyl-amino)-benzothiazol-6-yloxy]-pyridine-2-carboxylic acid methylamide], the inhibition at 1 µM on kinase domain of PDGFRβ was 100%; in assay [1], 99%; in assay [2] (HEK293H cells), 98%; at kinase domain of cKIT, 99%; in assay [3] (MNFS60 cells) it was 100%.
On to `CNC(=O)c1cc(Oc2ccc3nc(N[C@@H]4CCCC[C@H]4O)sc3c2Br)ccn1` [Example 376, 4-(7-bromo-2-((1R,2R)-2-hydroxycyclohexylamino)benzo[d]thiazol-6-yloxy)-N-methylpicolinamide], for which the inhibition at 1 µM on kinase domain of PDGFRβ stood at 28%; in assay [1], 100%; in assay [2] (HEK293H cells), 77%; on kinase domain of cKIT, 72%; in assay [3] (MCSF dependent MNFS60 cells), 87%.
Taken in the same sequence, the figures for `CNC(=O)c1cc(Oc2ccc3nc(N[C@H]4CCCN(S(C)(=O)=O)C4)sc3c2)ccn1` [Example 331, (S)-N-methyl-4-(2-(1-(methylsulfonyl)piperidin-3-ylamino)benzo[d]thiazol-6-yloxy)picolinamide] were 10%, 100%, 79%, 41% and 68%.
For `O[C@@H]1CCCC[C@H]1Nc1nc2ccc(Oc3ccnc(-c4nc5c([nH]4)CCCC5)c3)cc2s1` [Example 258, (1R,2R)-2-(6-(2-(4,5,6,7-tetrahydro-1H-benzo[d]imidazol-2-yl)pyridin-4-yloxy)benzo[d]thiazol-2-ylamino)cyclohexanol], the inhibition at 1 µM at kinase domain of PDGFRβ (compounds of Table 3) turned out to be 62%; in assay [1] (compounds of Table 3), 100%; in assay [2] (compounds of Table 3), 99%; on kinase domain of cKIT (compounds of Table 3) it was 44%; in assay [3] (compounds of Table 3) it was 100%.
For `CNC(=O)c1cc(Oc2ccc3nc(NCc4ccccn4)sc3c2)ccn1` [Compound 150, 4-{2-[(Pyridin-2-ylmethyl)-amino]-benzothiazol-6-yloxy}-pyridine-2-carboxylic acid methylamide], the inhibition at 1 µM at kinase domain of PDGFRβ turned out to be 1%; in assay [1] it was 99%; in assay [2] (HEK293H cells), 87%; on kinase domain of cKIT, 34%; in assay [3] (MNFS60 cells), 49%.
On to `CNC(=O)c1cc(Oc2ccc3nc(NCC4CCCCO4)sc3c2)ccn1` (centres unmarked) [Example 370, N-methyl-4-(2-((tetrahydro-2H-pyran-2-yl)methylamino)benzo[d]thiazol-6-yloxy)picolinamide], for which the inhibition at 1 µM on kinase domain of PDGFRβ was 34%; in assay [1], 100%; in assay [2] (HEK293H cells), 81%; at kinase domain of cKIT, 64%; in assay [3] (MCSF dependent MNFS60 cells), 60%.
Turning to `CNC(=O)c1cc(Oc2ccc3nc(NCc4ccncc4)sc3c2)ccn1` [Compound 139], the inhibition at 1 µM at kinase domain of PDGFRβ (compounds of Table 3) is 19%; in assay [1] (compounds of Table 3), 100%; in assay [2] (compounds of Table 3), 88%; on kinase domain of cKIT (compounds of Table 3), 24%; in assay [3] (compounds of Table 3), 46%.
Regarding `CNC(=O)c1cc(Oc2ccc3nc(NCc4ccccc4OC)sc3c2)ccn1` [Compound 132, 4-[2-(2-Methoxy-benzylamino)-benzothiazol-6-yloxy]-pyridine-2-carboxylic acid methylamide], the inhibition at 1 µM on kinase domain of PDGFRβ worked out at 58%; in assay [1] it was 99%; in assay [2] (HEK293H cells), 98%; at kinase domain of cKIT, 98%; in assay [3] (MNFS60 cells), 100%.
Regarding `c1ccc2c(Oc3ccc4nc(NC5CCCCC5)sc4c3)ccnc2c1` [Example 256, N-cyclohexyl-6-(quinolin-4-yloxy)benzo[d]thiazol-2-amine], the inhibition at 1 µM was determined as 3% at kinase domain of PDGFRβ (compounds of Table 3); 100% in assay [1] (compounds of Table 3); 87% in assay [2] (compounds of Table 3); 71% on kinase domain of cKIT (compounds of Table 3); 87% in assay [3] (compounds of Table 3).
Regarding `CNC(=O)c1cc(Oc2ccc3nc(N[C@@H]4CCCC[C@H]4O)sc3c2Cl)ccn1` [Example 378, 4-(7-chloro-2-((1R,2R)-2-hydroxycyclohexylamino)benzo[d]thiazol-6-yloxy)-N-methylpicolinamide], the inhibition at 1 µM was determined as 43% on kinase domain of PDGFRβ; 100% in assay [1]; 87% in assay [2] (HEK293H cells); 62% at kinase domain of cKIT; 90% in assay [3] (MCSF dependent MNFS60 cells).
As for `CNC(=O)c1cc(Oc2ccc3nc(NCc4c(F)cccc4OC)sc3c2)ccn1` [Example 223, 4-(2-(2-fluoro-6-methoxybenzylamino)benzo[d]thiazol-6-yloxy)-N-methylpicolinamide], the inhibition at 1 µM on kinase domain of PDGFRβ (compounds of Table 3) was determined as 28%; in assay [1] (compounds of Table 3), 100%; in assay [2] (compounds of Table 3) it was 97%; on kinase domain of cKIT (compounds of Table 3) it was 54%; in assay [3] (compounds of Table 3) it was 100%.
Consider `CCCn1cc(-c2cc(Oc3ccc4nc(N[C@@H]5CCCC[C@H]5O)sc4c3)ccn2)cn1` [Example 281, (1R,2R)-2-(6-(2-(1-propyl-1H-pyrazol-4-yl)pyridin-4-yloxy)benzo[d]thiazol-2-ylamino)cyclohexanol], for which the inhibition at 1 µM at kinase domain of PDGFRβ (compounds of Table 3) turned out to be 36%; in assay [1] (compounds of Table 3), 100%; in assay [2] (compounds of Table 3) it was 96%; at kinase domain of cKIT (compounds of Table 3), 22%; in assay [3] (compounds of Table 3), 100%.
For the compound `CNC(=O)c1cc(Oc2ccc3nc(NCc4cccnc4)sc3c2)ccn1` [Compound 154, 4-{2-[(Pyridin-3-ylmethyl)-amino]-benzothiazol-6-yloxy}-pyridine-2-carboxylic acid methylamide], the inhibition at 1 µM stood at 18% on kinase domain of PDGFRβ; 99% in assay [1]; 93% in assay [2] (HEK293H cells); 17% at kinase domain of cKIT; 48% in assay [3] (MNFS60 cells).

By inhibition is commonly meant the relative decrease from the control value, in per cent.
